Key:
5E5 (anti-MUC1) antibody = test: Antigen-antibody binding studies by surface plasmon resonance (SPR); design: species or system mouse; conditions: for Kd: SPR, 5E5 immobilised on CM5 chip, 20° C. and 7.5 pH
Procedure: Surface plasmon resonance (SPR) experiments were performed with a Biacore X-100 apparatus (Biacore, GE) in HBS-EP buffer solution at 7.5 pH (10 mM Hepes, 150 mM NaCl, 3 mM EDTA, with 2% DMSO and 0.05% Tween X100) at […]. This is the running buffer. The 5E5 antibody (from Abcam) was immobilised on a CM5 sensor chip (Biacore, GE) following the standard amine coupling method.^30 Briefly, the carboxymethyl dextran surface of flow cell 2 was activated by a 7 min injection of a 1:1 ratio of a 0.4 M aqueous solution of 1-ethyl-3-(3-dimethylaminopropyl) carbodiimide (EDC) and 0.1 M sulfo-N-hydroxysuccinimide. As such, the antibody was bound to the surface using various dilutions in 10 mM sodium acetate, 4.0. pH during a 7 min injection. […] The flow cell 1 was used as a reference and treated as the flow cell 2 (amine coupling method) without protein. Before use, 50 mM stock solutions of peptide ligand were diluted to the final concentration in the running buffer. Therefore, a series of different compounds were injected into the sensor chip at a flow rate of 30 μl/min for a period of 1 min followed by a dissociation period of 1 min. No regeneration was required. FIGS. 2A and 2B show the response-concentration curves obtained for the binding of glycopeptide 21 and 24, respectively, towards the 5E5 (anti-MUC1) antibody at 20° C. in SPR experiments.
The sensogram data were obtained in duplicate and processed with the Biae Evaluation X100 software (Biacore, GE). Experimental data from the affinity measurements were fitted to a specific two-site binding model using Prism software.

[1] = target: Glycopeptide 24 (…(GalNCOEt)APPA); test: SPR, ratio of the KD values of glycopeptides 21 and 24 for 5E5
[2] = target: Glycopeptide 21 (…(GalNAc)APPA); test: SPR (Biacore X-100), 5E5 immobilised on CM5 chip, glycopeptide as analyte, steady-state fit
[3] = target: Glycopeptide 24 (…(GalNCOEt)APPA); test: as above

Which results are given for “GGGGPAPGST(GalNCOEt)APPA [Glycopeptide 24]”?
Kd (5E5 (anti-MUC1) antibody): 83 nM; affinity relative to the natural glycopeptide (21) (5E5 (anti-MUC1) antibody; anti-MUC1 antibody 5E5, SPR): 6.5 times

How did the Kd (5E5 (anti-MUC1) antibody) turn out when “GGGGPAPGST(GalNAc)APPA [Glycopeptide 21, reference compound]” was run?
Its Kd is 540 nM.

Which fold higher affinity than the natural peptide (21) [1] does the source give for mouse monoclonal anti-MUC1 5E5 antibody here?
Its fold higher affinity than the natural peptide (21) is 6.5 times.

What about the Kd [2] of the same substance?
Its Kd is 540 nM.

And the Kd [3]?
Its Kd is 83 nM.

Reference: patent US20260227407A1, “SYNTHETIC GLYCOPEPTIDES AND DERIVATIVES FOR THE EARLY-STAGE DETECTION OF CANCER BIOMARKERS IN MUC1-POSITIVE TUMORS” (FUNDACIÓN RIOJA SALUD, priority 2023, published 2026)
